Assay results published in patent US20240217967A1, “INDOLINE DERIVATIVES AS DDRS INHIBITORS” (CHIESI FARMACEUTICI S.P.A., priority 2021, published 2024).

Columns and labels:
DDR1 [1] = target: T1, DDR1 (Homo sapiens, UniProt Q08345); assay: DDR1 cell based assay (PathHunter U2OS DDR1, collagen II stimulation); conditions: U2OS-DDR1 cells, bovine Type II Collagen stimulation
In short: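 Receptor activation measured by enzyme-fragment complementation luminescence in engineered U2OS cells. Compound added 30 min before overnight challenge with 20 μg/ml bovine collagen II; data scaled between vehicle and collagen-stimulated controls, IC50 derived by four-parameter variable-slope fitting.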

DDR2 [2] = target: T2, DDR2 (Homo sapiens, UniProt Q16832); assay: DDR2 LanthaScreen Europium Kinase Binding assay; conditions: binding affinity; IC50 converted in Ki using Cheng-Prusoff; read-out: Ki DDR2
T2 sequence (Q16832 22-855): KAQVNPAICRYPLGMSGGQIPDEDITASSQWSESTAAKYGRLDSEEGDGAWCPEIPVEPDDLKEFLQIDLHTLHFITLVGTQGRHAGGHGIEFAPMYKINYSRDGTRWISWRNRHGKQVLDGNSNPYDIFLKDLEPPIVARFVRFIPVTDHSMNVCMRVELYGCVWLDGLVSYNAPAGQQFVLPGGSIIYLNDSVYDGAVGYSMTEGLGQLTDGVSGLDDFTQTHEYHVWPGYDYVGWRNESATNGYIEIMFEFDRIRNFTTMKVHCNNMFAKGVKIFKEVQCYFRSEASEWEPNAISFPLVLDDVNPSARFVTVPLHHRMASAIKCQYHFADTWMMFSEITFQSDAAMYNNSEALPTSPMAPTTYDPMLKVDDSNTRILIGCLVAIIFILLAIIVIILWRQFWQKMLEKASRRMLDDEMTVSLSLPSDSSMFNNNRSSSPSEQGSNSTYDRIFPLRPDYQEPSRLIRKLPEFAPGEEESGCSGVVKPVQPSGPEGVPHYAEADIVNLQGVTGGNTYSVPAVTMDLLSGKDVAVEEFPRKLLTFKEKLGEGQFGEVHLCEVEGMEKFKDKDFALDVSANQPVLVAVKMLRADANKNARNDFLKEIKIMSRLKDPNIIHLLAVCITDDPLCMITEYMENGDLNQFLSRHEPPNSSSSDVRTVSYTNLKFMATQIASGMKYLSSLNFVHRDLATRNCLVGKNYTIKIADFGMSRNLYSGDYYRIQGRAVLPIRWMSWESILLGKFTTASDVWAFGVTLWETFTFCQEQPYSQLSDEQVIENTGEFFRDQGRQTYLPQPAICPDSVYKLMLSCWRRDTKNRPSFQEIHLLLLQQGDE
In short: (§1)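 Binding by TR-FRET tracer displacement: compounds incubated 1 h at room temperature with 5 nM DDR1 plus 20 nM Kinase Tracer 178, or 5 nM DDR2 plus 10 nM tracer, and 2 nM Eu anti-GST antibody in pH 7.5 HEPES/MgCl2/EGTA/BRIJ35 buffer. 665/615 nm ratio gave four-parameter IC50, converted to Ki via Cheng-Prusoff.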

DDR2 [3] = target: T2, DDR2; assay: DDR2 cell based assay (phospho-ELISA in HEK293T-DDR2 recombinant cells, collagen II stimulation); conditions: bovine Type II Collagen stimulation
Protocol: The inhibition of DDR2 phosphorylation by compounds was evaluated in HEK293T-DDR2 recombinant cells by phospho-ELISA assay. Briefly, HEK293T-DDR2 cells were seeded in poly-D-lysine-coated 24-well plates at a density of 250.000 cells/well and incubated for 1.5 hours at 37° C. and 5% CO2 in DMEM+10% FBS. After that, the medium was changed to serum-free DMEM and cells were incubated for 3 hours. Then. test compounds were added at different concentrations 30 minutes before stimulation with bovine Type II Collagen at 50 μg/ml for further 3 hours. For DDR2 phospho-ELISA assay (DuoSet IC Human Phospho-DDR2; R&D Systems), protein extracts were obtained by adding 60 μl/well of lysis buffer prepared according to the manufacturer's instructions. Protein concentration in the samples was determined by BCA assay and the levels of phospho-DDR2 were determined following R&D Systems indications. Raw data were normalized to maximal inhibition control (0% for normalization) and positive control (100% for normalization; cells treated with […] collagen II) and IC50 parameters were calculated in GraphPad Prism 8.0 software, using sigmoidal dose-response curve fitting with variable slope.

DDR1 [4] = target: T1, DDR1; assay: DDR1 LanthaScreen Europium Kinase Binding assay; conditions: binding affinity; IC50 converted in Ki using Cheng-Prusoff; read-out: Ki DDR1
In short: as §1

T1 sequence (Q08345 19-913): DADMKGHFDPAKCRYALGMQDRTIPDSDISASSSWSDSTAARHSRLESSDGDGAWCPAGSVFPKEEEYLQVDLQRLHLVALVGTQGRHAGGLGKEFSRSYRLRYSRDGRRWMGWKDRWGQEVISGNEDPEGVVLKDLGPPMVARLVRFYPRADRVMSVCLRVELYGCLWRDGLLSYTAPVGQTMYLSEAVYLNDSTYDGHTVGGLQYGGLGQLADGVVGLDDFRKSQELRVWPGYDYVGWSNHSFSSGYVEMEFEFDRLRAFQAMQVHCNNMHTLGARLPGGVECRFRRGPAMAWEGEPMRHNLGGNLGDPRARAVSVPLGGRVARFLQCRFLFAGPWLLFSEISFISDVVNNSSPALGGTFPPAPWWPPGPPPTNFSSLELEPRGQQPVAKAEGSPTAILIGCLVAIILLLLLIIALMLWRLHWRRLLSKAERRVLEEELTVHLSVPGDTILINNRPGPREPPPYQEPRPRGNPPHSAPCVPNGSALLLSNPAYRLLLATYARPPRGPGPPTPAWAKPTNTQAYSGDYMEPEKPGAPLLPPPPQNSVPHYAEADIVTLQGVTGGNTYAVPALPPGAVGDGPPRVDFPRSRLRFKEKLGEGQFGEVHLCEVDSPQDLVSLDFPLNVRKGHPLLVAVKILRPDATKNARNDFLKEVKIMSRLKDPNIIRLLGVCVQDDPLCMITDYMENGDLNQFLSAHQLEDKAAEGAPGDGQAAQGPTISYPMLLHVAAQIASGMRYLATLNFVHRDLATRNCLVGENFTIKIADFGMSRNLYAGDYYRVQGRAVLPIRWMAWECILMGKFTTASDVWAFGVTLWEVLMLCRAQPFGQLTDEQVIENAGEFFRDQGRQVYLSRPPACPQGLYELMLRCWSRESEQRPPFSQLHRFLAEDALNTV

Structure (SMILES)	IC50 (DDR1 [1]) [nM]	Ki (DDR2 [2]) [nM]	IC50 (DDR2 [3]) [nM]	Ki (DDR1 [4]) [nM]
CN1CCN(Cc2ccc(NC(=O)c3ccc4c(c3)N(Cc3cnc5[nH]nc(N6CCOCC6)c5c3)CC4)cc2C(F)(F)F)CC1 [Example 89, N-[4-[(4-methylpiperazin-1-yl)methyl]-3-(trifluoromethyl)phenyl]-1-[(3-morpholino-1H-pyrazolo[3,4-b]pyridin-5-yl)methyl]indoline-6-carboxamide]	< 25	< 25	50 to 80	< 25
Cc1cn(-c2cc(NC(=O)c3ccc4c(c3)N(C(=O)c3cnc5[nH]ncc5c3)CC4C)cc(C(F)(F)F)c2)cn1 (stereo not drawn) [Example 28, 3-methyl-N-(3-(4-methyl-1H-imidazol-1-yl)-5-(trifluoromethyl)phenyl)-1-(1H-pyrazolo[3,4-b]pyridine-5-carbonyl)indoline-6-carboxamide]	< 25	25 to 50	25 to 50	< 25
Cc1cn(-c2cc(NC(=O)c3ccc4c(c3)N(Cc3cnc5[nH]nc(C)c5c3)CC4)cc(C(F)(F)F)c2)cn1 [Example 7, N-(3-(4-methyl-1H-imidazol-1-yl)-5-(trifluoromethyl)phenyl)-1-((3-methyl-1H-pyrazolo[3,4-b]pyridin-5-yl)methyl)indoline-6-carboxamide]	< 25	< 25	25 to 50	< 25
O=C(Nc1cc(F)cc(C(F)(F)F)c1)c1ccc2c(c1)N(Cc1cnc3ccccn13)CC2 [Example 59, N-(3-fluoro-5-(trifluoromethyl)phenyl)-1-(imidazo[1,2-a]pyridin-3-ylmethyl)indoline-6-carboxamide]	< 25	< 25	50 to 80	< 25
Cc1n[nH]c2ncc(CN3CCc4ccc(C(=O)Nc5ccc(CN(C)C)c(C(F)(F)F)c5)cc43)cc12 [Example 69, N-(4-((dimethylamino)methyl)-3-(trifluoromethyl)phenyl)-1-((3-methyl-1H-pyrazolo[3,4-b]pyridin-5-yl)methyl)indoline-6-carboxamide]	< 25	< 25	< 25	< 25
Cc1cn(-c2cc(C(=O)Nc3ccc4c(c3)N(C(=O)c3cnc5[nH]ncc5c3)CC4)cc(C(F)(F)F)c2)cn1 [Example 21, N-(1-(1H-pyrazolo[3,4-b]pyridine-5-carbonyl)indolin-6-yl)-3-(4-methyl-1H-imidazol-1-yl)-5-(trifluoromethyl)benzamide]	25 to 50	< 25	< 25	< 25
CN1CCN(Cc2cc(NC(=O)c3ccc4c(c3)N(Cc3cnc5[nH]ccc5c3)CC4)cc(C(F)(F)F)c2)CC1 [Example 9, 1-((1H-pyrrolo[2,3-b]pyridin-5-yl)methyl)-N-(3-((4-methylpiperazin-1-yl)methyl)-5-(trifluoromethyl)phenyl)indoline-6-carboxamide]	< 25	< 25	< 25	< 25
O=C(Nc1cc(F)cc(C(F)(F)F)c1)c1ccc2c(c1)N(Cc1cnc3[nH]ncc3c1)CC2 [Example 39, 1-((1H-pyrazolo[3,4-b]pyridin-5-yl)methyl)-N-(3-fluoro-5-(trifluoromethyl)phenyl)indoline-6-carboxamide]	< 25	< 25	25 to 50	25 to 50
O=C(Nc1cccc(C(F)(F)F)c1)c1ccc2c(c1)N(Cc1cnc3[nH]ncc3c1)CC2 [Example 35, 1-((1H-pyrazolo[3,4-b]pyridin-5-yl)methyl)-N-(3-(trifluoromethyl)phenyl)indoline-6-carboxamide]	< 25	< 25	< 25	< 25
Cc1cn(-c2cc(NC(=O)c3ccc4c(c3)N(Cc3ccc5[nH]cnc5c3)CC4)cc(C(F)(F)F)c2)cn1 [Example 4, 1-((1H-benzo[d]imidazol-5-yl)methyl)-N-(3-(4-methyl-1H-imidazol-1-yl)-5-(trifluoromethyl)phenyl)indoline-6-carboxamide]	25 to 50	< 25		< 25
CN1CCN(Cc2cc(C(=O)Nc3ccc4c(c3)N(C(=O)c3cnc5ccccn35)CC4)cc(C(F)(F)F)c2)CC1 [Example 16, N-(1-(imidazo[1,2-a]pyridine-3-carbonyl)indolin-6-yl)-3-((4-methylpiperazin-1-yl)methyl)-5-(trifluoromethyl)benzamide]	25 to 50	< 25		< 25
Cc1cn(-c2cc(C(=O)Nc3ccc4c(c3)N(Cc3cnc5ccccn35)CC4)cc(C(F)(F)F)c2)cn1 [Example 23, N-(1-(imidazo[1,2-a]pyridin-3-ylmethyl)indolin-6-yl)-3-(4-methyl-1H-imidazol-1-yl)-5-(trifluoromethyl)benzamide]	50 to 80	< 25		< 25
Cc1n[nH]c2ncc(CN3CCc4ccc(C(=O)Nc5cc(C(=O)N6CCN(C)CC6)cc(C(F)(F)F)c5)cc43)cc12 [Example 74, 1-((3-methyl-1H-pyrazolo[3,4-b]pyridin-5-yl)methyl)-N-(3-(4-methylpiperazine-1-carbonyl)-5-(trifluoromethyl)phenyl)indoline-6-carboxamide]	< 25	< 25		< 25
CC(C)(c1cc(NC(=O)c2ccc3c(c2)N(Cc2cnc4ccccn24)CC3)no1)C(F)(F)F [Example 58, 1-(imidazo[1,2-a]pyridin-3-ylmethyl)-N-(5-(1,1,1-trifluoro-2-methylpropan-2-yl)isoxazol-3-yl)indoline-6-carboxamide]	< 25	< 25		25 to 50
Cc1cn(-c2cc(NC(=O)c3ccc4c(c3)N(C(=O)c3cnc5ccccn35)CC4)cc(C(F)(F)F)c2)cn1 [Example 12, 1-(imidazo[1,2-a]pyridine-3-carbonyl)-N-(3-(4-methyl-1H-imidazol-1-yl)-5-(trifluoromethyl)phenyl)indoline-6-carboxamide]	50 to 80	< 25		< 25
CN1CCN(Cc2cc(NC(=O)c3ccc4c(c3)N(Cc3cnc5ccccn35)CC4)cc(C(F)(F)F)c2)CC1 [Example 11, 1-(imidazo[1,2-a]pyridin-3-ylmethyl)-N-(3-((4-methylpiperazin-1-yl)methyl)-5-(trifluoromethyl)phenyl)indoline-6-carboxamide]	50 to 80	< 25		< 25
Cn1nc(NC(=O)c2ccc3c(c2)N(Cc2cnc4cnccn24)CC3)cc1C(C)(C)C [Example 87, N-(5-(tert-butyl)-1-methyl-1H-pyrazol-3-yl)-1-(imidazo[1,2-a]pyrazin-3-ylmethyl)indoline-6-carboxamide]	25 to 50	< 25		< 25
CN1CCN(Cc2cc(NC(=O)c3ccc4c(c3)N(Cc3cnc5cnccn35)CC4)cc(C(F)(F)F)c2)CC1 [Example 10, 1-(imidazo[1,2-a]pyrazin-3-ylmethyl)-N-(3-((4-methylpiperazin-1-yl)methyl)-5-(trifluoromethyl)phenyl)indoline-6-carboxamide]	25 to 50	< 25		< 25
O=C(Nc1cccc(C(F)(F)F)c1)c1ccc2c(c1)N(Cc1cnc3ccnn3c1)CC2 [Example 63, 1-(pyrazolo[1,5-a]pyrimidin-6-ylmethyl)-N-(3-(trifluoromethyl)phenyl)indoline-6-carboxamide]	50 to 80	< 25		< 25
